From paper PMC8705538, “Discovery of SARS-CoV-2 Nsp14 and Nsp16 Methyltransferase Inhibitors by High-Throughput Virtual Screening” (Pharmaceuticals, 2021)
Like-named read-outs stand apart in the source and are kept apart here.

Tests used:
[1] = Cytotoxicity, neutral red uptake, HepG2; type: cell-based; conditions: human
Protocol: (§1) A549 human non-small cell lung cancer cell line, HepG2 hepatocarcinoma cells, and BALB/c 3T3 clone A31 murine fibroblast cell line for the study were obtained from ATCC (American Type Culture Collection, Manassas, VA, USA). Cells were propagated in DMEM medium (Sigma, D6046, Irvin, UK) supplemented with 1% penicillin (100 U/mL)–streptomycin (100 μg/mL) and 10% foetal bovine serum (Sigma, F7524, St Louis, MO, USA) in case of A549 and HepG2 or 10% calf serum (Sigma, C8056, St Louis, MO, USA) in case of BALB/c 3T3. All cultivations were performed in a humidified 5% CO2 atmosphere at 37 °C.
(§2) The cytotoxicity of the compounds was tested in A549, HepG2, and BALB/c3T3 cell lines by neutral red (NR) uptake assay. A549 and BALB/c3T3 cells were seeded in 96-well plates at a density of 8 × 10^3 cells per well, HepG2 at density 1.2 × 10^4 cells per well. After 24 h incubation, test compounds in a concentration range of 0.8 to 200 μM were added. Cultivation in the presence of test compounds was done for 48 h. Afterwards, the plates were washed with phosphate-buffered saline (PBS) (Sigma, D8537, Irvin, UK), and 25 µg/mL NR solution (Sigma, N2889, Irvin, UK) was added. In case of BALB/c 3T3 cells, NR was diluted in 5% foetal calf serum containing media, while for A549 and HepG2 cells, it was diluted in 5% foetal bovine serum containing media. After 3 h incubation, the plate was washed with PBS, and the NR taken up by viable cells was extracted using desorbing fixative (50% ethanol/1% acetic acid/49% water). Absorbance at 540 nm was measured using a Tecan M200 Infinite Pro microplate reader. Cytotoxicity was expressed as a concentration-dependent reduction of the uptake of NR, compared to the untreated controls, and the IC50 value for each compound was calculated.

A549 cell culture = test: Cell permeability testing (LC/MS/MS of cell lysates and media); type: in vitro ADME, human; conditions: for Cell Permeability, 2 × 10^4 Cells/L / Cell Permeability, 4 × 10^4 Cells/L: 24 h; for cell permeability (in words): A549
Protocol: To test cell permeability, each compound was added to A549 cell culture at a concentration of 20 μM and incubated for 24 h. Cells were seeded in 6-well plates at a density of 2 × 10^4 and 4 × 10^4 cells per well at concentrations 1 × 10^4 and 2 × 10^4 cells/mL media for the testing of each compound, each in three replicates. After the incubation, the cell cultivation media and cell lysates were collected. After the removal of media, cells were washed with ice-cold PBS (Sigma, D1408, Irvin, UK) and lysed for 30 min in 500 µL per well ice-cold RIPA buffer (Sigma, R0278, St Louis, MO, USA). Samples were stored at −80 °C until analysis.
The quantitative determination of tested compounds in cell lysates and culture media was performed on a Waters MICROMASS QUATTRO microTM tandem mass spectrometer combined with Acquity UPLC system. Acquity UPLC BEH C8 (2.1 × 50 mm × 1.7 μm) column was used at a flow rate of 0.25 mL/min. The column oven was set at 30 °C, and the sample injection volume was 5 μL. The mobile phase consisted of a combination of A (0.1% formic acid in water) and B (acetonitrile). The gradient elution program from 5% B to 98% B in 5 min was applied for analysis. Tandem mass spectrometer in positive electrospray mode was used for quantification. The TargetLynx software was applied to process LC/MS/MS data. Samples for LC/MS/MS analysis were prepared as follows: 200 μL of acetonitrile/methanol mixture (3:1 v/v) was add to 200 μL of each cell lysate and culture media sample. Then, the samples were centrifuged (10,000 rpm, 10 min), and the supernatants (300 μL) were removed from each sample and placed in vials for LC/MS/MS analysis. Calibration curves for all analytes were produced by analysis of standard solutions over a concentration range of 0.2 to 20 μM.

[2] = Cytotoxicity, neutral red uptake, A549; type: cell-based; conditions: human
Protocol: as §1, §2

[3] = Cytotoxicity, neutral red uptake, 3T3; type: cell-based, murine; conditions: mouse
Protocol: as §1, §2

SARS-CoV-2 nsp14 = SARS-CoV-2 nsp14 (Severe acute respiratory syndrome coronavirus 2, UniProt P0DTD1); test: biochemical; conditions: for Ligand Efficiency (LE) nsp14: estimated from IC50 values; for inhibition at 100 µM: read-out: Percent inhibition at 100 μM, nsp14
[4] = tested on: 3T3, A549, and HepG2 cell lines; test: Cytotoxicity, summary statements over the three cell lines; type: cell-based; conditions: 3T3, A549, HepG2
Protocol: as §2

[5] = biological target: T1, human Glycine N-Methyltransferase (GNMT) (Homo sapiens, UniProt Q14749); test: HTRF methyltransferase selectivity assay, human GNMT; type: biochemical; conditions: for Ligand Efficiency (LE) Human (hMtase): estimated from IC50 values; for inhibition at 100 µM: read-out: Percent inhibition at 100 μM, Human
T1 construct: purchased MyBioSource MBS636160
T1 sequence (Q14749 1-295): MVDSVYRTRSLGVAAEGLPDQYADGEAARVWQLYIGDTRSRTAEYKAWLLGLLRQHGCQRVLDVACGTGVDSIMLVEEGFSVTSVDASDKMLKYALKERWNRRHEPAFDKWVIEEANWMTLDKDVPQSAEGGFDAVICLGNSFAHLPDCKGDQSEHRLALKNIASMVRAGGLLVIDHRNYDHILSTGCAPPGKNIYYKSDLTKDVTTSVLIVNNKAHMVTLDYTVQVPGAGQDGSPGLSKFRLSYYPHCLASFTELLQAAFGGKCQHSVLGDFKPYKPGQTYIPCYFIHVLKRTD

SARS-CoV-2 nsp16/nsp10 = SARS-CoV-2 nsp16/nsp10 (Severe acute respiratory syndrome coronavirus 2, UniProt P0DTD1); test: biochemical; conditions: for Ligand Efficiency (LE) nsp16: estimated from IC50 values; for inhibition at 100 µM: read-out: Percent inhibition at 100 μM, nsp16
[6] = 48 h, neutral red uptake, read-out: Cytotoxicity (CC50) HepG2
[7] = A549, compound 20 μM, LOQ 0.2 μM or 1%
[8] = 48 h, neutral red uptake, read-out: Cytotoxicity (CC50) A549
[9] = 48 h, neutral red uptake, read-out: Cytotoxicity (CC50) 3T3
[10] = HTRF, SAM 10 µM, GpppG 4 µM, read-out: IC50 nsp14
[11] = HTRF, SAM 10 µM, glycine 5 mM, read-out: IC50 Human (hMtase, human glycine N-methyltransferase)
[12] = HTRF, nsp16/nsp10, SAM 10 µM, m7GpppA-RNA, read-out: IC50 nsp16

Structure (SMILES)	CC50 at 48 h [1, 6] [µM]	Cell Permeability, 2 × 10^4 Cells/L (A549 cell culture; [7])	Cell Permeability, 4 × 10^4 Cells/L (A549 cell culture; [7])	CC50 at 48 h [2, 8] [µM]	CC50 at 48 h [3, 9] [µM]	IC50 (SARS-CoV-2 nsp14) [µM]	Ligand Efficiency (LE) nsp14 (SARS-CoV-2 nsp14) [kcal/mol]	inhibition at 100 µM (SARS-CoV-2 nsp14) [%]	cell permeability (in words) (A549 cell culture)	IC50 [5] [µM]	Ligand Efficiency (LE) Human (hMtase) [5] [kcal/mol]	inhibition at 100 µM [5] [%]	IC50 (SARS-CoV-2 nsp16/nsp10) [µM]	Ligand Efficiency (LE) nsp16 (SARS-CoV-2 nsp16/nsp10) [kcal/mol]	inhibition at 100 µM (SARS-CoV-2 nsp16/nsp10) [%]	IC50 (SARS-CoV-2 nsp14; [10]) [µM]	CC50 at 48 h [1] [µM]	Cell Permeability, 2 × 10^4 Cells/L (A549 cell culture; human, 20 μM) [%]	Cell Permeability, 4 × 10^4 Cells/L (A549 cell culture; human, 20 μM) [%]	IC50 [5, 11] [µM]	other results
Nc1ncnc2c1ncn2[C@@H]1O[C@H](C[C@@H](N)CC[C@H](N)C(=O)O)[C@@H](O)[C@H]1O [Sinefungin, reference compound]	> 100	<LOD	<LOD	72.9	99.2	–	–	–	–	–	–	–	–	–	–	–	–	–	–	–	–
O=C(Cc1csc(SCC(=O)c2ccccc2)n1)Nc1cccc2nsnc12 [ZINC38661771]	93.8	<LOQ	<LOQ	97	116	118 ± 4	0.19	58 ± 7	low level of cell permeability	58 ± 3	0.21	63 ± 5	51 ± 2	0.21	69 ± 8	–	–	–	–	–	concentration at which cytotoxicity was shown [4]: ≈ 100 μM
O=C(CCCn1cncn1)N1CCCC(c2nc3ccccc3s2)C1 (stereo not shown) [ZINC23398144]	> 100	0.7%	0.6%	> 100	> 100	77 ± 3	0.23	57 ± 8	low level of cell permeability	315 ± 5	0.20	21 ± 2	197 ± 9	0.21	39 ± 7	–	–	–	–	–	cytotoxicity (in words) [4]: no measurable cytotoxicity
CCNC(=O)NCCSC[C@H]1O[C@@H](n2cnc3c(N)ncnc32)[C@H](O)[C@@H]1O [ZINC473112262]	–	–	–	–	–	–	0.28	–	–	–	0.26	–	–	0.28	–	3.1	> 100	0.3	0.3	5.8	CC50 at 48 h [2]: > 100 µM; CC50 at 48 h [3]: > 100 µM; IC50 (SARS-CoV-2 nsp16/nsp10; [12]): 2.46 µM
CSC[C@H]1O[C@@H](n2cnc3c(N)ncnc32)[C@H](O)[C@@H]1O [ZINC4228245]	–	–	–	–	–	–	0.40	–	–	–	0.39	–	1.02	0.41	–	1.4	> 200	0.7	0.8	1.8	CC50 at 48 h [2]: > 200 µM; CC50 at 48 h [3]: > 200 µM
O=C(Cn1c(=O)[nH]c2c(-c3ccccc3)c[nH]c2c1=O)NCc1cccnc1 [ZINC33037945]	> 100	17.9%	30.8%	> 100	> 100	106 ± 5	0.19	56 ± 5	good cell permeability	125 ± 6	0.19	53 ± 8	–	–	-8 ± 6	–	–	–	–	–	cytotoxicity (in words) [4]: no measurable cytotoxicity; IC50 nsp16 (SARS-CoV-2 nsp16/nsp10; HTRF, nsp16/nsp10, SAM 10 µM, m7GpppA-RNA): inactive
Cc1ccc(S(=O)(=O)OC[C@H]2O[C@@H](n3cnc4c(N)ncnc43)[C@H](O)[C@@H]2O)cc1 [ZINC3861767]	–	–	–	–	–	–	0.27	–	–	–	0.26	–	–	0.28	–	1.5	> 200	2.2	0.5	2.8	CC50 at 48 h [2]: > 200 µM; CC50 at 48 h [3]: > 200 µM; IC50 (SARS-CoV-2 nsp16/nsp10; [12]): 1.14 µM
